Measurements taken from US12291502B2, “Topoisomerase II-alpha inhibitors and methods of treating cancer using the same” (The Regents of the University of Colorado, priority 2019, dated 2025).
Read-outs that look alike come from different tables or passages of the source.

Legend:
Human TOP2A = molecular target: T1, Human TOP2A (Homo sapiens, UniProt P11388); assay: TOP2A DNA decatenation assay (kDNA, agarose gel); type: biochemical; details: for TOP2A inhibition, result in words: decatenation screen at 30 μM
T1 construct: purchased TopoGEN (Buena Vista, CO)
T1 sequence (P11388 whole entry): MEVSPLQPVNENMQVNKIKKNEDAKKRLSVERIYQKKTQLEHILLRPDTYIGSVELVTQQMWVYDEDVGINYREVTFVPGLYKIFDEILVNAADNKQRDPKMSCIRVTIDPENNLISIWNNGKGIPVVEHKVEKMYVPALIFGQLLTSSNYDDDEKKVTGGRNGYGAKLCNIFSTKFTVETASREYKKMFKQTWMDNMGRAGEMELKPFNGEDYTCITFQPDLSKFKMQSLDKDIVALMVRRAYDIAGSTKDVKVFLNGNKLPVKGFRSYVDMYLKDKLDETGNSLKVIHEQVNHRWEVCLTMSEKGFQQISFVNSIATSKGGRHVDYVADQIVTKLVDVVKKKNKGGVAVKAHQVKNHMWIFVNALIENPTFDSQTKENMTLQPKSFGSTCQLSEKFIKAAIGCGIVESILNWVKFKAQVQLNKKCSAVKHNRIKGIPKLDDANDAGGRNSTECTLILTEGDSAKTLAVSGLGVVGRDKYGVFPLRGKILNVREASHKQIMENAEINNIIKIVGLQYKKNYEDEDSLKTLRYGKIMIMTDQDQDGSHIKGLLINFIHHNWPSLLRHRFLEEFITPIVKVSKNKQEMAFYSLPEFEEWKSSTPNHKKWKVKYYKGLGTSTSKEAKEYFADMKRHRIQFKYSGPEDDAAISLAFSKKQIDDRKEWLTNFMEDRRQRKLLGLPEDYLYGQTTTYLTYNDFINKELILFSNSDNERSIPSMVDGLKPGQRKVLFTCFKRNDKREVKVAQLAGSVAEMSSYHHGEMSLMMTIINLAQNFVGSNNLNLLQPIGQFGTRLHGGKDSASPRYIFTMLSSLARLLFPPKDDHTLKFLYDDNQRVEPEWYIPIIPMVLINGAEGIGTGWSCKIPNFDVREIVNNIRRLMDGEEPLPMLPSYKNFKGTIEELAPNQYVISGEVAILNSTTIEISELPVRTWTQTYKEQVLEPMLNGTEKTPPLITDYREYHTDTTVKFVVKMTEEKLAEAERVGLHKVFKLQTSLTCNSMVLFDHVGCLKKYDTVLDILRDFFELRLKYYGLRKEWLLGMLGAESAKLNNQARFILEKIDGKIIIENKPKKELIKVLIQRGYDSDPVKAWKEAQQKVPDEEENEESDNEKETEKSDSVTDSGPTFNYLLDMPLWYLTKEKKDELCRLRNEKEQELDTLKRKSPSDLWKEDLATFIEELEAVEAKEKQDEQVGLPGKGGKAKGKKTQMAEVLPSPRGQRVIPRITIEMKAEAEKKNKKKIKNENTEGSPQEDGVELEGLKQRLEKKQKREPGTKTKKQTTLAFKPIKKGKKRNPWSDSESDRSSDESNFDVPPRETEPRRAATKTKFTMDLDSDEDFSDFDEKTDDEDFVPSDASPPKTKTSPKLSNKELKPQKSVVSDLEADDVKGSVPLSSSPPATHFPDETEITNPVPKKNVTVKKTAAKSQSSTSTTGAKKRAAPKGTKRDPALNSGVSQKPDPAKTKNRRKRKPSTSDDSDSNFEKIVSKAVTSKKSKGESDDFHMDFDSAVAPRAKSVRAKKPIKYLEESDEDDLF
Method: Inhibition of TOP2A activity. Human TOP2A, kDNA, and assay buffers were obtained from TopoGEN (Buena Vista, CO). The synthesized compounds were screened for their TOP2A inhibitory activity by the intensity of DNA decatenation bands on a DNA gel when compared to the vehicle. Compounds were initially incubated with TOP2A (3 U/reaction) for 20 min at a 30 μM and 1.2% DMSO concentration in a 37° C. incubator without CO2.
The decatenation reaction was initiated immediately after by adding 2 mM ATP and 35 ng/reaction of kDNA, then incubated for 1 hour in a 37° C. water bath. The samples were loaded into a 0.8% agarose gel in 1× Tris-Borate-EDTA (TBE) at a 0.2 μg/mL ethidium bromide concentration and allowed to run in an electrophoretic chamber for 1 hour at 100V. Compounds with the highest inhibitory activity were selected for 2-fold serial dilution dose-response assays (58.6 nM-30 μM). The dose-response assays followed the same protocol with the exception of 4 U/reaction of TOP2A.
Inhibition studies of TOP2A and observed structure activity relationships (SAR). DNA catenation/decatenation or linking/unlinking of DNA is one of the main TOP2A functions essential for regulating DNA topology, and this is ATP dependent. […] Thus, as a starting point, the synthesized analogs were screened against TOP2A-dependent decatenation using 30 μM fixed concentrations, and the DNA from reactions were resolved on 0.8% agarose gels containing ethidium bromide.
Moreover, these studies provided interesting SAR, which shed light on the potential lead drug target binding interactions and affinity, biological activity, and future drug design optimization with this unique class of TOP2A inhibitors.
(§1) TOP2A decatenation assay. Human TOP2A, kDNA, and assay buffers were obtained from TopoGEN (Buena Vista, CO). The synthesized compounds were screened for their TOP2A inhibitory activity by the intensity of DNA decatenation bands on a DNA gel when compared to the vehicle. Compounds were initially incubated with TOP2A (3 U/reaction) for 20 min at a 30 μM and 1.2% DMSO concentration in a 37° C. incubator without CO2. The decatenation reaction was initiated immediately after by adding 2 mM ATP and 35 ng/reaction of kDNA, then incubated for 1 h in a 37° C. water bath. The samples were loaded into a 0.8% agarose gel in 1× Tris-Borate-EDTA (TBE) at a 0.2 μg/mL ethidium bromide concentration and allowed to run in an electrophoretic chamber for 1 h at 100V. Compounds with the highest inhibitory activity were selected for 2-fold serial dilution dose-response assays (58.6 nM-30 μM). The dose-response assays followed the same protocol with the exception of 4 U/reaction of TOP2A,
as §1, with “assays (53.6” for “assays (58.6”, “of TOP2A.” for “of TOP2A,”

[1] = system: vimentin promoter activity (VimPro-GFP) in SW620 cells; assay: VimPro-GFP EMT reporter assay; details: Homo sapiens, SW-620, read-out: Vimentin Down-regulation EC50 (μM)
Method: VimPro-GFP and EcadPro-mCherry reporter assays. VimPiro-GFP: SW620 cells were first transduced with NucLight Red virus (Essen BioSciences) and selected with Zeocin at 200 μg/mL, and then transduced with pCDH-VimPro-GFP-EF1-puro virus and selected with puromycin at 4 μg/mL. The dual fluorescently labeled cells were plated and treated in 3D tumor organoid as described. Tumor organoid images were recorded every 2 hours over a 72 hours period using an incucyte ZOOM content imaging system (Essen BioSciences) or PerkinElmer Phenix imager (PerkinElmer).
Analogs were also assessed for their ability to modulate or reverse EMT using VimPro-GFP and EcadPro-RFP SW620 reporter cells cultured as tumor organoids, determining EC50 dose responses over 72 hours (Table 2).
VimPro-GFP and EcadPro-RFP reporter assays. Stable VimPro-GFP or EcadPro-RFP SW620 reporter cells were generated using pCDH-VimPro-GFP-EF1-puro virus or pCDH-EcadPro-mCherry-EF1-puro virus as previously reported. […] Transduced cells were selected with puromycin at 2 μg/mL. The stable fluorescent labeled reporter cells were then used to generate tumor organoids as described. Tumor organoids were then treated with TOP2A inhibitors at 10 μM for an additional 72 h. Following treatment, tumor organoids were stained with 16 μM of Hoechst 33342 for 1 h, which functions as a nuclear stain for imaging segmentation. Images were taken with a 5× air objective. Z stacks were set at 20 μm apart for a total of 7 layers. Imaging analysis was performed using an Opera Phenix high content screening (HCS) system and Harmony high-content imaging and analysis software interface (PerkinElmer, MA). Nuclei were identified with Hoechst 33342 stain within each layer, and cells were found with either GFP or mCherry channel. The intensities of each fluorescence channel within the cells were calculated and thresholds were set based on the background intensities. Percentages of GFP or mCherry positive cells were calculated and normalized to the DMSO treated group.
VimPro-GFP and EcadPro-RFP reporter assays. Stable VimPro-GFP or EcadPro-RFP SW620 reporter cells were generated using pCDH-VimPro-GFP-EF1-puro virus or pCDH-EcadPro-mCherry-EF1-puro virus as previously reported. […] Transduced cells were selected with puromycin at 2 μg/mL. The stable fluorescent labeled reporter cells were then used to generate tumor organoids as described. Tumor organoids were then treated with TOP2A inhibitors at 10 μM for an additional 72 h. Following treatment, tumor organoids were stained with 16 μM of Hoechst 33342 for 1 h, which functions as a nuclear stain for imaging segmentation. Images were taken with a 5× air objective.

[2] = system: E-cadherin promoter activity (EcadPro-RFP) in SW620 cells; assay: EcadPro-RFP (mCherry) EMT reporter assay; type: cell-based; details: Homo sapiens, SW-620; Table 3; SW620 Cells; read-out: E-cadherin Up-regulation EC50
From the text: (§2) VimPro-GFP and EcadPro-RFP reporter assays. […] 35(38): p. 4990-9.]
as §2

[3] = system: TOP2A-dependent TCF-transcription in SW620-TOP tumor organoids; assay: TCF (TOPflash) reporter assay in 3D tumor organoids; type: cell-based; details: SW620-TOP tumor organoids, 72 hours; read-out: IC50 inhibition of TCF-transcription
Method: TCF reporter assay in 3D Tumor organoid. Stable engineered cells containing pCDH-TOPflash-luc-EF1-puro were used to generate tumor organoid arrayed in 96-well plates and treated for 72 hours. One-Glo™ luciferase reagent and CellTiter-Glo™ 3D cell viability reagent (Promega) were used to determine the TCF reporter activity in viable cells.
After characterizing 3 and 7 as TOP2A ATP-competitive inhibitors, these compounds were next tested for their ability to inhibit TOP2A-dependent TCF-transcription using the well characterized TOPflash (TOP) luminescent reporter, which was used to generate a stably transduced SW620-TOP reporter cells as described previously (Zhou, et al., Oncogene 2016, 35:4990-9). These cells were used to generate single 3D tumor organoids (700 μm in diameter) uniformly arrayed in 96-well plates, which mimic aspects of tumor function observed in vivo. […] Like neo, the mode of action of compounds 3 and 7 also results in significant antitumor activity (FIGS. 3E-3H). […] In other words, the activity of 3 and 7 is long lasting, suppressing CSC stemness and related tumorigenicity. EMT is a major driving force promoting tumor cell invasion and metastasis. […] Tumor organoids were dissociated, and viable cells were washed and plated into the top chamber of 96-well invasion plate coated with Matrigel and incubated for an additional 72 hours without adding any additional compound. […] Taken together, the biological activity of 3 and 7 is consistent with the activity of neo, inhibiting TOP2A-dependent TCF-transcription that in turn reverses EMT while inhibiting the associated tumorigenic properties of mCRC.
A similar trend in IC50 values was observed compared to TOP2A enzyme studies, further supporting our proposed mechanism of action as inhibition of TOP2A-dependent TCF-transcription.
3D Tumor organoid TOPflash reporter assay. […] 35(38): p. 4990-9.] were used to generate tumor organoids arrayed in 96-well plates and treated for 72 h with TOP2A inhibitors. One-Glo™ luciferase reagent and CellTiter-Glo™ 3D cell viability reagent (Promega, WI) were used to determine the TCF reporter activity in viable cells. Briefly, reagents were added to the spheroids at 1:1 ratio (v:v) and the plates were placed on an orbital shaker (300 rpm) for 10 min at room temperature before the luminescence was read with Envision plate reader (PerkinElmer, MA). TCF reporter activity was normalized to organoid viability and inhibitors treated conditions were normalized to DMSO treated controls.

[4] = Table 1, decatenation, 30 μM fixed concentration
[5] = 1 h, Table 1, decatenation, 30 μM fixed concentration, read-out: % Inhibition TOP2A (30 μM)
[6] = Table 1, decatenation dose response, read-out: % Inhibition TOP2A (IC50 Values)
[7] = Table 3, 30 μM, read-out: % TOP2A Decatenation inhibition (30 μM)
[8] = Table 3, read-out: TOP2A Inhibition IC50

CC(=O)Nc1ccc2c(-c3cc4ccccc4s3)ccnc2c1O [Analog 54]
% Inhibition TOP2A (30 μM) (Human TOP2A; [4]): 0.0%
TOP2A inhibition, result in words (Human TOP2A): inhibition was lost

CC(=O)Nc1ccc2c(-c3cccc(F)c3)ccnc2c1O [Analog 29]
inhibition at 30 µM (Human TOP2A; [5]): 100%
IC50 (Human TOP2A; [6]): 7.8 µM
TOP2A inhibition, result in words (Human TOP2A): potent inhibition of TOP2A activity

CC(=O)Nc1ccc2c(NC3CCCCC3)ccnc2c1O [AA-29-216]
inhibition at 30 µM (Human TOP2A; [7]): 100%
IC50 (Human TOP2A; [8]): 0.29 µM
EC50 [1]: 20.6 µM
EC50 [2]: 17.8 µM

CC(=O)Nc1ccc2c(Nc3ccc4[nH]ccc4c3)ccnc2c1O [AA-29-136]
inhibition at 30 µM (Human TOP2A; [7]): 90%
EC50 [1]: 4.1 µM
EC50 [2]: 8.4 µM

CC(=O)Nc1cccc(-c2ccnc3c(O)c(NC(C)=O)ccc23)c1 [Analog 36]
% Inhibition TOP2A (30 μM) (Human TOP2A; [4]): 3.0%
TOP2A inhibition, result in words (Human TOP2A): significant loss of activity

CC(=O)Nc1ccccc1-c1ccnc2c(O)c(NC(=O)CCN3CCOCC3)ccc12 [Analog 43]
% Inhibition TOP2A (30 μM) (Human TOP2A; [4]): 1.0%

CC(=O)Nc1ccc2c(-c3ccc(F)cc3)ccnc2c1O [Analog 30]
% Inhibition TOP2A (30 μM) (Human TOP2A; [4]): 1.0%
TOP2A inhibition, result in words (Human TOP2A): the activity is lost

O=C(CN1CCOCC1)Nc1ccc2c(NC3CCCCC3)ccnc2c1O [AA-34-171]
inhibition at 30 µM (Human TOP2A; [7]): 62%
EC50 [1]: 17.5 µM
EC50 [2]: 48.2 µM

COc1ccc(F)cc1-c1ccnc2c(OC)c(NC(C)=O)ccc12 [Analog 6]
% Inhibition TOP2A (30 μM) (Human TOP2A; [4]): 0.0%

CC(=O)Nc1ccccc1-c1ccnc2c(O)c(NC(C)=O)ccc12 [Analog 34]
% Inhibition TOP2A (30 μM) (Human TOP2A; [4]): 1.0%
TOP2A inhibition, result in words (Human TOP2A): significant loss of activity

CC(=O)Nc1ccc2c(-c3ccsc3)ccnc2c1O [Analog 58]
inhibition at 30 µM (Human TOP2A; [5]): 92%
IC50 (Human TOP2A; [6]): 5 µM
TOP2A inhibition, result in words (Human TOP2A): improves activity compared to the 3-furanyl analog 56

O=C(CN1CCOCC1)Nc1ccc2c(-c3cc(F)ccc3O)ccnc2c1O [Analog 41]
% Inhibition TOP2A (30 μM) (Human TOP2A; [4]): 4.0%
IC50 [3]: 4.7 µM

COc1c(NC(C)=O)ccc2c(-c3cc4ccccc4s3)ccnc12 [Analog 45]
IC50 [3]: 10.7 µM

CC(=O)Nc1ccc2c(Nc3cc(O)ccc3F)ccnc2c1O [AA-29-171]
EC50 [1]: 26.6 µM
EC50 [2]: 139 µM

CC(=O)Nc1ccc2c(-c3cccc(C(F)(F)F)c3)ccnc2c1O [Analog 31]
IC50 (Human TOP2A; [6]): 3.4 µM
% Inhibition TOP2A (30 μM) (Human TOP2A; [4]): 97.0%
TOP2A inhibition, result in words (Human TOP2A): excellent inhibitory activity

CC(C)(C)C(=O)Nc1ccc2c(-c3cc(F)ccc3O)ccnc2c1O [Analog 40]
% Inhibition TOP2A (30 μM) (Human TOP2A; [4]): 0.0%

CC(=O)Nc1ccc2c(-c3ccco3)ccnc2c1O [Analog 55]
% Inhibition TOP2A (30 μM) (Human TOP2A; [4]): 0.0%
TOP2A inhibition, result in words (Human TOP2A): significant loss of activity

CC(=O)Nc1ccc2c(Nc3ccc(C(F)(F)F)cc3)ccnc2c1O [AA-29-158]
EC50 [1]: 1.36 µM
EC50 [2]: 65.1 µM

CC(=O)Nc1ccc2c(Nc3cccc(C(F)(F)F)c3)ccnc2c1O [AA-29-157]
EC50 [1]: 29.9 µM
EC50 [2]: 180 µM

CC(=O)Nc1ccc2c(NC3CCCCCC3)ccnc2c1O [AA-34-130]
inhibition at 30 µM (Human TOP2A; [7]): 100%
IC50 (Human TOP2A; [8]): 1.53 µM
EC50 [1]: 59 µM
EC50 [2]: 36.5 µM

CC(=O)Nc1ccc2c(Nc3ccc4[nH]c(C)cc4c3)ccnc2c1O [AA-29-155]
EC50 [1]: 9.56 µM
EC50 [2]: 128 µM

CC(=O)Nc1ccc2c(Nc3ccc(O)cc3F)ccnc2c1O [AA-29-172]
EC50 [1]: 45.9 µM
EC50 [2]: 58.5 µM

CC(=O)Nc1ccc2c(Nc3cccc(F)c3)ccnc2c1O [AA-29-146]
inhibition at 30 µM (Human TOP2A; [7]): 100%
EC50 [1]: 7.4 µM
EC50 [2]: 9.7 µM

CC(=O)Nc1ccc2c(NC3CCCC3)ccnc2c1O [AA-34-131]
inhibition at 30 µM (Human TOP2A; [7]): 92%
IC50 (Human TOP2A; [8]): 2.16 µM
EC50 [1]: 23 µM
EC50 [2]: 21.3 µM

CC(=O)Nc1ccc2c(-c3ccc(C(F)(F)F)cc3)ccnc2c1O [Analog 32]
inhibition at 30 µM (Human TOP2A; [5]): 97%
IC50 (Human TOP2A; [6]): 0.7 µM
TOP2A inhibition, result in words (Human TOP2A): excellent inhibitory activity

CC(=O)Nc1ccc2c(NC3CCC3)ccnc2c1O [AA-34-132]
inhibition at 30 µM (Human TOP2A; [7]): 94%
IC50 (Human TOP2A; [8]): 6.56 µM
EC50 [1]: 27.7 µM
EC50 [2]: 100 µM

CC(=O)Nc1ccc2c(-c3cc(Cl)ccc3O)ccnc2c1O [Analog 38]
% Inhibition TOP2A (30 μM) (Human TOP2A; [4]): 0.0%
TOP2A inhibition, result in words (Human TOP2A): no activity was observed

CC(=O)Nc1ccc2c(-c3cncnc3)ccnc2c1O [Analog 59]
% Inhibition TOP2A (30 μM) (Human TOP2A; [4]): 0.0%

CC(=O)Nc1ccc2c(-c3ccccc3)ccnc2c1O [Analog 28]
% Inhibition TOP2A (30 μM) (Human TOP2A; [4]): 25.0%

CC(=O)Nc1ccc2c(Nc3ccccc3)ccnc2c1O [AA-29-148]
inhibition at 30 µM (Human TOP2A; [7]): 100%
EC50 [1]: 25.9 µM
EC50 [2]: 7.6 µM

CC(=O)Nc1ccc2c(Nc3cccc4[nH]ccc34)ccnc2c1O [AA-29-147]
EC50 [1]: 14.8 µM
EC50 [2]: 146 µM

O=C(CN1CCOCC1)Nc1ccc2c(-c3cc4ccccc4o3)ccnc2c1O [Analog 60]
inhibition at 30 µM (Human TOP2A; [5]): 100%
IC50 (Human TOP2A; [6]): 5 µM

O=C(CCN1CCOCC1)Nc1ccc2c(NC3CCCCC3)ccnc2c1O [AA-34-180]
inhibition at 30 µM (Human TOP2A; [7]): 0%
EC50 [1]: 13 µM
EC50 [2]: 65.5 µM

CC(=O)Nc1ccc2c(-c3cc(C(F)(F)F)ccc3O)ccnc2c1O [Analog 37]
inhibition at 30 µM (Human TOP2A; [5]): 100%
IC50 (Human TOP2A; [6]): 9 µM
TOP2A inhibition, result in words (Human TOP2A): excellent inhibitory activity

CC(=O)Nc1ccc2c(-c3cccc(O)c3)ccnc2c1O [Analog 33]
% Inhibition TOP2A (30 μM) (Human TOP2A; [4]): 0.0%
